Here are results for 59 compounds from the METLIN SMRT retention time set (Domingo-Almenara et al. 2019).

The nature of this data set: gradient 5% acetonitrile 3 min, to 50% in 2 min, to 85% in 15 min, held 3 min, 100 µL/min. Conditions: column: Zorbax Extend-C18 2.1 x 50 mm; eluents: water / acetonitrile, 0.1% formic acid. A digest of the protocol: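 Using water and acetonitrile that each contained 0.1% formic acid, mixtures of ~100 pure standards were separated at 100 μL/min on a Zorbax Extend-C18 column (2.1 × 50 mm, 1.8 μm). The HPLC fed a quadrupole time-of-flight mass spectrometer working in positive and negative ionization mode, with dead and dwell volumes of 40 μL and 900 μL. Data were acquired over 3 months. Retention time was read from computationally picked adduct peaks after manual inspection of each.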
For `CCn1c(=O)n(CC(=O)NCCC2=CCCCC2)c(=O)c2cnc(-c3ccccc3)nc21`, the RP-LC retention time is 1130 s.

`Cc1cc(N2CCN(C)CC2)nc2ccc(NC(=O)Nc3ccc(F)cc3)cc12` gave an RP-LC retention time of 587 s.

As for `COc1ccc(Cl)cc1S(=O)(=O)N1CCCC(C(=O)NCc2ccccn2)C1` (centres undefined), the RP-LC retention time amounted to 660 s.

`O=S(=O)(Cc1ccccc1Cl)N(Cc1ccsc1)C1CC1` yielded an RP-LC retention time of 1000 s.

`COc1ccc(OC)c(S(=O)(=O)N2C[C@@H](F)C[C@H]2C(=O)N2CCCCC2)c1` came in with an RP-LC retention time of 762 s.

`O=S(=O)(NC1(c2nc(-c3ccsc3)no2)CCCCC1)c1ccc2c(c1)OCCO2` registered an RP-LC retention time of 954 s.

Take `CCC1CN2C=NC(N3CCN(C(=O)c4nn(CC)cc4Cl)CC3)=CC2=N1` (centres undefined): the RP-LC retention time came to 602 s.

For the compound `Cc1cnn(Cc2nc(-c3ccc(NC(=O)c4ccco4)cc3)oc2C)c1`, the RP-LC retention time came out at 806 s.

`O=C(C1CC(=O)N(C2CCCC2)C1)N1CCC(c2c[nH]c3ccccc23)(c2c[nH]c3ccccc23)CC1` (centres undefined) gave an RP-LC retention time of 850 s.

Compound `Cn1c(=O)c(=O)n(C)c2cc(N3CCCCC3)c(NC(=O)CN3CCCCC3)cc21` gave an RP-LC retention time of 592 s.

As to `N#Cc1cnc2ccccc2c1N1CCC(C(=O)N2CCc3ccccc3C2)CC1`, the RP-LC retention time worked out at 711 s.

`CCS(=O)(=O)c1ccc(-c2cccc(NC(=O)c3ccc4ccccc4n3)c2)nn1` registered an RP-LC retention time of 912 s.

In the case of `Cc1ccc(NS(=O)(=O)c2cc3n(c2)CCCNC3=O)c(F)c1`, the RP-LC retention time was found to be 663 s.

The compound `Cc1ccc(NC(=O)Cn2cccc2-c2nnc(C3CCC3)o2)c(Cl)c1` showed an RP-LC retention time of 1050 s.

In turn, `COc1ccc(S(=O)(=O)N2C[C@@H]3C[C@H]2C[C@@H]3NC(=O)c2cccs2)cc1Cl` returned an RP-LC retention time of 792 s.

For `Cc1ccc(-n2nc(N3CCCN(S(=O)(=O)c4ccccc4)CC3)ccc2=O)cc1C`, the RP-LC retention time was 947 s.

In the case of `CCCc1ccc(S(=O)(=O)N2CCC3(CC2)NCCCN=C3NC2CCCC2)cc1`, the RP-LC retention time was 857 s.

Compound `CC1(C(=O)N2CCN(c3ccccn3)CC2)CCCCC(=O)N1` (centres undefined) had an RP-LC retention time of 552 s.

`CCN1CCN(CCNC(=O)C2CCCN(c3ncc(-c4ccc(F)cc4)cn3)C2)CC1` (centres undefined) showed an RP-LC retention time of 632 s.

The compound `Cc1ccc(-c2noc(-c3ccc(=O)n(Cc4cccc(F)c4)n3)n2)cc1` showed an RP-LC retention time of 1150 s.

`O=c1ccc(-c2nc(-c3ccncc3)no2)cn1Cc1noc(C2CCCC2)n1` showed an RP-LC retention time of 719 s.

For `C/C=C/c1cc2c(c(=O)o1)C(=O)[C@@H](O)[C@H](C)O2`, the RP-LC retention time stood at 695 s.

The compound `O=C(NCc1cccs1)c1nc(-c2ccnc(N3CCCCC3)c2)no1` had an RP-LC retention time of 742 s.

The compound `Cc1cc(C)cc(C(=O)N2CCC(c3noc(N)c3C(C)C)CC2)c1` had an RP-LC retention time of 829 s.

Turning to `O=C(NCCc1ccncc1)C1CN(C(=O)c2cccs2)CC12CCCCC2` (centres undefined), the RP-LC retention time is 610 s.

The compound `CCC(=O)N1CC(c2nc(-c3ccc(F)cc3)no2)C2(CCOCC2)C1` (centres undefined) had an RP-LC retention time of 800 s.

Take `O=C(/C=C/C(=O)N1CCc2ccccc2C1)N1CCc2ccccc2C1`: the RP-LC retention time was 888 s.

Consider `COc1ccc(CNC2=NCCNC23CCN(S(=O)(=O)c2ccc(C)c(C)c2)CC3)cc1`, for which the RP-LC retention time came out at 775 s.

In turn, `O=C(NC1CC1)c1cc(N2CCCC2)nc2ccc(F)cc12` displayed an RP-LC retention time of 600 s.

The compound `Cn1cc(CC(=O)NCc2ccc(F)cc2Cl)c2cccnc21` yielded an RP-LC retention time of 727 s.

As for `O=C(Cn1nc2c(N3CCOCC3)nccn2c1=O)Nc1cc(C(F)(F)F)ccc1Cl`, the RP-LC retention time came out at 827 s.

Take `COc1cccc(CC(=O)N2CCC(C(=O)NCCc3csc(-c4cccs4)n3)CC2)c1`: the RP-LC retention time turned out to be 770 s.

In the case of `CCSCCOC(=O)C1=C(C)NC2=C(C(=O)CCC2)C1c1ccccc1OC` (centres undefined), the RP-LC retention time was 727 s.

In turn, `O=C(CC1CCN(C(=O)c2cc3cc(Cl)ccc3[nH]2)CC1)NCCCN1CCCC1` had an RP-LC retention time of 644 s.

Turning to `Cc1ccc(C(=O)Nc2ccc(-n3c(C)nc4ccccc4c3=O)cc2C)s1`, the RP-LC retention time came to 821 s.

Compound `COCC(C)NC(=O)C(=O)NCc1cccs1` (centres undefined) gave an RP-LC retention time of 658 s.

As to `CNC(=O)Cc1csc(-c2ccc(F)cc2)n1`, the RP-LC retention time is 716 s.

Compound `CNC(=O)C1CCCN(C(=O)Nc2ccc(NC(=O)Nc3ccc(C)cc3)cc2)C1` (centres undefined) had an RP-LC retention time of 883 s.

In the case of `O=C(Cc1cccs1)NC1CC(=O)N(Cc2ccccc2)C1` (centres undefined), the RP-LC retention time came to 712 s.

Consider `CCn1cc(CN(C)C(=O)C2N(C(C)C)C(=O)C23CCCC3)c(C)n1` (centres undefined), for which the RP-LC retention time was 612 s.

The compound `COC(=O)c1ccc2c(=O)n(-c3ccc(Cl)cc3)c(N3CCN(C4CCCCC4)CC3)nc2c1` gave an RP-LC retention time of 754 s.

Compound `O=C(c1cc2c(s1)CCC(C(=O)N1CCN(c3ccccn3)CC1)C2)N1CCCC1` (centres undefined) registered an RP-LC retention time of 600 s.

The compound `O=C(NCc1ccco1)Nc1ccc([N+](=O)[O-])cc1` registered an RP-LC retention time of 852 s.

In turn, `C=CCN1CCN(C(=O)[C@@H]2[C@H](c3cc(OC)c(OC)c(OC)c3)c3cc4c(cc3[C@H](O)[C@H]2CO)OCO4)CC1` returned an RP-LC retention time of 604 s.

`O=C(NCCCN1CCOCC1)c1cc2occc2c(Nc2ccc(F)cc2)n1` registered an RP-LC retention time of 652 s.

On to `CCOc1ccccc1NC(=O)C1CCN(S(=O)(=O)c2cc(-c3noc(C)n3)cs2)CC1`, for which the RP-LC retention time came out at 996 s.

Compound `CC(C)CCNC(=O)Cn1c(=O)c(S(=O)(=O)c2ccccc2)cc2ccccc21` came in with an RP-LC retention time of 866 s.

Compound `Cc1cc(C(N)=O)c2cccc(Cl)c2n1` had an RP-LC retention time of 621 s.

In turn, `CCS(=O)(=O)c1ccc2c(c1)N(Cc1nc(-c3ccc(OC(C)C)cc3)no1)C(=O)CO2` had an RP-LC retention time of 991 s.

`CC(C)OCCCNC(=O)CC1=C2CCCCC2NC1=O` (centres undefined): the RP-LC retention time is 628 s.

With `CC(NC(=O)c1cc(=O)[nH]c2ccc(Br)cc12)c1ccccc1` (centres undefined), the RP-LC retention time turned out to be 769 s.

Take `COCCN(Cc1ccc(F)cc1)Cc1cc(=O)c2cc(F)ccc2[nH]1`: the RP-LC retention time was 815 s.

Turning to `COc1cc(OC)cc(C(=O)Nc2ccc3sccc3c2)c1`, the RP-LC retention time is 882 s.

`CN(C)c1ccc(CNC(=O)C2CCN(c3cc(N4CCSCC4)ncn3)CC2)cc1` returned an RP-LC retention time of 579 s.

With `CSc1ccc(-c2nc3cnccn3c2Nc2cccc(C(=O)N3CCOCC3)c2)cc1`, the RP-LC retention time was determined as 704 s.

In turn, `O=C(COc1ccccc1)Nc1nnc(C2=COCCO2)o1` displayed an RP-LC retention time of 651 s.

The compound `COc1ccc(-c2noc(-c3nn(-c4ccc(C)c(C)c4)ccc3=O)n2)cc1OC` had an RP-LC retention time of 886 s.

On to `Cc1ccc(CNC(=O)CSc2ccc(N3CCCC(C(=O)NC4CC4)C3)nn2)cc1` (centres undefined), for which the RP-LC retention time came to 643 s.

`NC(=O)c1cc(-c2cccc(Cl)c2)n[nH]1`: the RP-LC retention time was 679 s.
